According to EP4745137A1 (Gluetacs Therapeutics (Shanghai) Co., Ltd., priority 2023, dated 2025):

Key:
[1] = target: T1, human Cereblon WT GST-tagged protein (Homo sapiens, UniProt Q96SW2); assay: CRBN-binding affinity by HTRF (CEREBLON BINDING kit); conditions: HTRF inhibitory activity, CEREBLON BINDING kit; read-out: HTRF IC50
T1 construct: purchased CISBIO 64BDCRBNPEH

CAL-62 = assay: Tumor cell proliferation inhibition (CellTiter-Meiluncell Luminescent Cell Viability Assay), CAL-62; conditions: Homo sapiens, CAL-62, 96 h, read-out: inhibitory activity (IC50, nM) against tumor cells proliferation, CAL-62
Experimental: (§1) The tumor cells used herein were cultured in a cell culture medium listed in table 2 at 37°C in an incubator with 5% CO2. Prior to experimentation, all cell lines used were correctly identified by STR profiling, and tested negative for mycoplasma contamination using a mycoplasma detection kit through routine screenings.
(§2) On the following day, the test compounds of the present disclosure were subjected to serial dilution. […] Subsequently, 0.5 µL of the test compound dilution was transferred into the 96-well plate containing the cells, with each well containing 100 µL of cell culture medium. […] Into the 96-well plate, the diluted test compounds and corresponding detection reagents were added, resulting in final test compound concentrations of 500 nM and 10 nM, respectively. The experimental procedure is described below using the diluted 2 µM test compound as an example.
(§3) After the cells were treated with the compounds of the present disclosure for a specified period (the treatment durations were shown in Table 3), the cell viability assay reagent was added to the culture medium according to the kit's instructions to determine cell viability. […] All controls were treated using the same procedure as the compounds of the present disclosure. The growth inhibition curves for the compounds of the present disclosure were plotted using Prism GraphPad software, and the IC50 values were calculated therefrom.

[2] = system: Human acute T lymphocytic leukemia cells (Molt-4); assay: Tumor cell proliferation inhibition (CellTiter-Meiluncell Luminescent Cell Viability Assay), Molt-4; conditions: MOLT-4, 96 h, read-out: inhibitory activity (IC50, nM) against tumor cells proliferation, Molt 4
Experimental: as §1, §2, §3

Jurkat = assay: Tumor cell proliferation inhibition (CellTiter-Meiluncell Luminescent Cell Viability Assay), Jurkat; conditions: Homo sapiens, 96 h, read-out: inhibitory activity (IC50, nM) against tumor cells proliferation, Jurkat
NCI-H1975 = assay: Tumor cell proliferation inhibition (CellTiter-Meiluncell Luminescent Cell Viability Assay), NCI-H1975; conditions: Homo sapiens, NCI-H1975, 96 h, read-out: inhibitory activity (IC50, nM) against tumor cells proliferation, H1975
GSPT1 = target: T2, GSPT1 (Homo sapiens, UniProt P15170+Q96SW2); assay: Western-blot assay of substrate protein degradation in hPBMCs, GSPT1; type: cell-based; conditions: 24 hours of compound treatment, compounds tested at 50 nM and 500 nM (concentration of the table not stated)
T2 construct: endogenous in cells; host or cells: hPBMCs (Milecell Biotechnologies)

IKZF2 = target: T3, IKZF2 (Homo sapiens, UniProt Q96SW2+Q9UKS7); assay: Western-blot assay of substrate protein degradation in hPBMCs, IKZF2; type: cell-based; conditions: 24 hours of compound treatment, compounds tested at 50 nM and 500 nM (concentration of the table not stated)
T3 construct: endogenous in cells; host or cells: hPBMCs (Milecell Biotechnologies)

IKZF3 = target: T4, IKZF3 (Homo sapiens, UniProt Q96SW2+Q9UKT9); assay: Western-blot assay of substrate protein degradation in hPBMCs, IKZF3; type: cell-based; conditions: 24 hours of compound treatment, compounds tested at 50 nM and 500 nM (concentration of the table not stated)
T4 construct: endogenous in cells; host or cells: hPBMCs (Milecell Biotechnologies)

CK1α = target: T5, CK1α (Homo sapiens, UniProt P48729+Q96SW2); assay: Western-blot assay of substrate protein degradation in hPBMCs, CK1α; type: cell-based; conditions: 24 hours of compound treatment, compounds tested at 50 nM and 500 nM (concentration of the table not stated)
T5 construct: endogenous in cells; host or cells: hPBMCs (Milecell Biotechnologies)

MM.1R = assay: Tumor cell proliferation inhibition (CellTiter-Meiluncell Luminescent Cell Viability Assay), MM.1R; conditions: Homo sapiens, 96 h, read-out: inhibitory activity (IC50, nM) against tumor cells proliferation, MM.1R
IKZF1 = target: T6, IKZF1 (Homo sapiens, UniProt Q13422+Q96SW2); assay: Western-blot assay of substrate protein degradation in hPBMCs, IKZF1; type: cell-based; conditions: 24 hours of compound treatment, compounds tested at 50 nM and 500 nM (concentration of the table not stated)
T6 construct: endogenous in cells; host or cells: hPBMCs (Milecell Biotechnologies)

WEE1 = target: T7, WEE1 (Homo sapiens, UniProt P30291+Q96SW2); assay: Western-blot assay of substrate protein degradation in hPBMCs, WEE1; type: cell-based; conditions: 24 hours of compound treatment, compounds tested at 50 nM and 500 nM (concentration of the table not stated)
T7 construct: endogenous in cells; host or cells: hPBMCs (Milecell Biotechnologies)

[3] = system: Human breast cancer cells (MDA-MB-231); assay: Tumor cell proliferation inhibition (CellTiter-Meiluncell Luminescent Cell Viability Assay), MDA-MB-231; conditions: MDA-MB-231, 96 h, read-out: inhibitory activity (IC50, nM) against tumor cells proliferation, MDA-MB-231

T2 sequence (P15170 whole entry): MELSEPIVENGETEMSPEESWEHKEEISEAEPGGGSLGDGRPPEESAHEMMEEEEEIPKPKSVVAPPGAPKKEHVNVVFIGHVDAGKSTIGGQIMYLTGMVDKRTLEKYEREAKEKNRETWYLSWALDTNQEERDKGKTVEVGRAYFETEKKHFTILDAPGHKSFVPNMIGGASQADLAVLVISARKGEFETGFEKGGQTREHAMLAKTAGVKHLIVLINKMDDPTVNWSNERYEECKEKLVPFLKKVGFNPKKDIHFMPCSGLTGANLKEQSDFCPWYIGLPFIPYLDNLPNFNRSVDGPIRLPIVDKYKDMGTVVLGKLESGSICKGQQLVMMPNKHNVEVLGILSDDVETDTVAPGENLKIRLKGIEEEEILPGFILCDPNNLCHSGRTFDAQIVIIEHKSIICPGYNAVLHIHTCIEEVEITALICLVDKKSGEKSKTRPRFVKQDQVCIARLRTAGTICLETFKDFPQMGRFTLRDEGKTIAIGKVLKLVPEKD
T2 sequence (Q96SW2 whole entry): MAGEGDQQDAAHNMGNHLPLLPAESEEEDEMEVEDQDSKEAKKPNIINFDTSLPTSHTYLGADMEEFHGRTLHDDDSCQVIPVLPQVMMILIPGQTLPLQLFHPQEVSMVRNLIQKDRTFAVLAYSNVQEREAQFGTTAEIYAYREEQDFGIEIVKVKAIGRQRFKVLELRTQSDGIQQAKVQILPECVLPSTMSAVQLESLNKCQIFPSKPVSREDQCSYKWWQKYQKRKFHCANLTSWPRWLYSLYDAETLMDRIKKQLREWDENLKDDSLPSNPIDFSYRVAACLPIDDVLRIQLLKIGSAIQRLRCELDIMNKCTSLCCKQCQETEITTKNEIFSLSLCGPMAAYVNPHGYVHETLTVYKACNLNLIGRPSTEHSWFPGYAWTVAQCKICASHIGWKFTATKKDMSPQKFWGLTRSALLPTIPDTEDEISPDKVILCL
T2 sequence (Q16531 whole entry partner): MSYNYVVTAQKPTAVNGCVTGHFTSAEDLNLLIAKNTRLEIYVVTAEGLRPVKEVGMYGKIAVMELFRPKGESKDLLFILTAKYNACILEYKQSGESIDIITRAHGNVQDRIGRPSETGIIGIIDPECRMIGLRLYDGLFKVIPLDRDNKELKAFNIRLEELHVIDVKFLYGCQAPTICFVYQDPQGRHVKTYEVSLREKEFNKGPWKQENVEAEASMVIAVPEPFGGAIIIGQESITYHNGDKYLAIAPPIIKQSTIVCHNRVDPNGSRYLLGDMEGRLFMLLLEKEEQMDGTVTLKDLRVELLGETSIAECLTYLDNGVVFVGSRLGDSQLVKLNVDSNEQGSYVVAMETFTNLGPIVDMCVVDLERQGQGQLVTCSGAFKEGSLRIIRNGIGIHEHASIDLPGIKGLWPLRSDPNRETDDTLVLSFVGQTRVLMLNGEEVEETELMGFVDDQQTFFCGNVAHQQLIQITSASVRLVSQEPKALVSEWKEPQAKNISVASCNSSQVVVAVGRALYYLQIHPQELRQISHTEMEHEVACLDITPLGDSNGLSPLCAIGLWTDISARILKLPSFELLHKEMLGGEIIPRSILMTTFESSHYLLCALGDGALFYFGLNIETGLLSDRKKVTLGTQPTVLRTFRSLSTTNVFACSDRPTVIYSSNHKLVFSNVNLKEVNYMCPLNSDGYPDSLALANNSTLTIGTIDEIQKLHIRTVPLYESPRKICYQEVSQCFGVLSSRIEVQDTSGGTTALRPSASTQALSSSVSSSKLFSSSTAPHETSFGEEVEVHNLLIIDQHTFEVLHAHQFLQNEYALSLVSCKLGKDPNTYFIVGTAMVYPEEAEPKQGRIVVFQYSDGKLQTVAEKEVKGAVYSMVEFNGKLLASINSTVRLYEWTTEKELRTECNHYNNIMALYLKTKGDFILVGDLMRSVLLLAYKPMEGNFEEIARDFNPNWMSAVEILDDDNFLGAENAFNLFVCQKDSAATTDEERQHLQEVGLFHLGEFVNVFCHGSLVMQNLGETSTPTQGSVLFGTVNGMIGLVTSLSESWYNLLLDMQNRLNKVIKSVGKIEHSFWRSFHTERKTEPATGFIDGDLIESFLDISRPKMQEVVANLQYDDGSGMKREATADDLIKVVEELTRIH
T5 sequence (P48729 whole entry): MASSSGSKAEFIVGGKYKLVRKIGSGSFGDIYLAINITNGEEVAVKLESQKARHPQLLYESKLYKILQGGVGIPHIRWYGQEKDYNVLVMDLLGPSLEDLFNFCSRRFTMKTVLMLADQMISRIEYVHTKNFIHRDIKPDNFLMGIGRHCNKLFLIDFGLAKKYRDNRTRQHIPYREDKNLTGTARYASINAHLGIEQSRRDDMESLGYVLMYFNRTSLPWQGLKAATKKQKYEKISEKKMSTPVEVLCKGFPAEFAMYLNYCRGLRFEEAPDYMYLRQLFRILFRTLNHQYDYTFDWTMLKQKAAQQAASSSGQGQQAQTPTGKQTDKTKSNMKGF
T5 sequence (Q96SW2 whole entry): as the sequence (Q96SW2 whole entry) above
T5 sequence (Q16531 whole entry partner): as the sequence (Q16531 whole entry partner) above
T7 sequence (P30291 whole entry): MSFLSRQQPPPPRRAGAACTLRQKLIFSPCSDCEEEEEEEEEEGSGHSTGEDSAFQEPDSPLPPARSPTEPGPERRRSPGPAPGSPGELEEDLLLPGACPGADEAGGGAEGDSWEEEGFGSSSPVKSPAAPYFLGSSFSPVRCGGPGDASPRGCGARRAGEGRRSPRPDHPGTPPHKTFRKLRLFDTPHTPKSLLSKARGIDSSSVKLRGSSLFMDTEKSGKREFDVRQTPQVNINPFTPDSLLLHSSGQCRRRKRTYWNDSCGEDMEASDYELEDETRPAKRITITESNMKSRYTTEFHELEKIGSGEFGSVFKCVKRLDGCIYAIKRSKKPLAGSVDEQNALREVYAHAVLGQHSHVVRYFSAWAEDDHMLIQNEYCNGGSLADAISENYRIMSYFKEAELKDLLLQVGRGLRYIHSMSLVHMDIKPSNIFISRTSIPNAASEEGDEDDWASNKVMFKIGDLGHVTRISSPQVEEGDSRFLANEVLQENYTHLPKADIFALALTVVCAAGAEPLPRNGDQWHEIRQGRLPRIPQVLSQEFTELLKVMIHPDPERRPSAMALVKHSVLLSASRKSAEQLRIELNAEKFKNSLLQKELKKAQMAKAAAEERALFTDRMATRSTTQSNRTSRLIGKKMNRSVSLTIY
T7 sequence (Q96SW2 whole entry): as the sequence (Q96SW2 whole entry) above
T7 sequence (Q16531 whole entry partner): as the sequence (Q16531 whole entry partner) above
T1 sequence (Q96SW2 whole entry): as the sequence (Q96SW2 whole entry) above
T3 sequence (Q9UKS7 whole entry): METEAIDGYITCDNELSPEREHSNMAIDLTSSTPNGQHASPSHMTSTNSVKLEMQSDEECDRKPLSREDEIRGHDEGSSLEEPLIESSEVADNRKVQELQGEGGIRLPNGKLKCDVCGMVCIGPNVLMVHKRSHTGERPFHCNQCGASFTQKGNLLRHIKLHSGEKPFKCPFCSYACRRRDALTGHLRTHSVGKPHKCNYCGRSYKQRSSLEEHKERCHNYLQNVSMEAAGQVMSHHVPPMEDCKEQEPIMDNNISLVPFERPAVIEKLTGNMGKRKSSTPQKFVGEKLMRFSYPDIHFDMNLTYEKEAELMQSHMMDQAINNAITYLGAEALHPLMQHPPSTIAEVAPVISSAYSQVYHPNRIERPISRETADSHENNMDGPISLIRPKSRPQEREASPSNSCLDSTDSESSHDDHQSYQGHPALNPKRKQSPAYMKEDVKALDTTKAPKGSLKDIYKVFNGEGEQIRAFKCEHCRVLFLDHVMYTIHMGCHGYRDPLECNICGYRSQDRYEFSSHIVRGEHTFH
T3 sequence (Q96SW2 whole entry): as the sequence (Q96SW2 whole entry) above
T3 sequence (Q16531 whole entry partner): as the sequence (Q16531 whole entry partner) above
T6 sequence (Q13422 whole entry): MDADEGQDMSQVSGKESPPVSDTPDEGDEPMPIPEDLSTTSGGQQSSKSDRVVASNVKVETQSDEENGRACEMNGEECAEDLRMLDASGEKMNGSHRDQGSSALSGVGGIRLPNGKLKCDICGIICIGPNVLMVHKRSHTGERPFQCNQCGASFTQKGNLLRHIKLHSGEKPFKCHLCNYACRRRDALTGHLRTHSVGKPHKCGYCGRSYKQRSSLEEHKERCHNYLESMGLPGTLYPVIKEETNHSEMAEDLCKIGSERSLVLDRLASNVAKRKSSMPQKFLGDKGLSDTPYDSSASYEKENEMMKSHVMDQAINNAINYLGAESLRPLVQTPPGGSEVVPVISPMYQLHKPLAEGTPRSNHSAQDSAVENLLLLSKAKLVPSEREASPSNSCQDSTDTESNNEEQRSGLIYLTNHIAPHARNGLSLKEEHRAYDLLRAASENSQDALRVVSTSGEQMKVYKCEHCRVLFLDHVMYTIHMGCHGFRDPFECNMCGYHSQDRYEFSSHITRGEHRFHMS
T6 sequence (Q96SW2 whole entry): as the sequence (Q96SW2 whole entry) above
T6 sequence (Q16531 whole entry partner): as the sequence (Q16531 whole entry partner) above

Row | SMILES | IC50 [1] [nM] | IC50 (CAL-62) [nM] | IC50 [2] [nM] | IC50 (Jurkat) [nM] | IC50 (NCI-H1975) [nM] | GSPT1 substrate protein remaining % (GSPT1) | IKZF2 substrate protein remaining % (IKZF2) | IKZF3 substrate protein remaining % (IKZF3) | CK1a substrate protein remaining % (CK1α) | IC50 (MM.1R) [nM] | IKZF 1 substrate protein remaining % (IKZF1) | Weel substrate protein remaining % (WEE1) | IC50 [3] [nM]
1 | O=C1CCC(N2Cc3cc(CN4CCC(c5cccc(F)c5Cl)CC4)ccc3C2=O)C(=O)N1 (centres unmarked) [GT-04553, 3-(5-((4-(2-chloro-3-fluorophenyl)piperidin-1-yl)methyl)-1-oxoisoindolin-2-yl)piperidine-2,6-dione] | 1000 to 1500 | 1 to 5 | 1 to 5 | 1 to 5 | 10 to 50 | A (0% ≤ substrate protein remaining % ≤ 80%) | A (0% ≤ substrate protein remaining % ≤ 80%) | A (0% ≤ substrate protein remaining % ≤ 80%) | A (0% ≤ substrate protein remaining % ≤ 80%) | 1 to 5 | A (0% ≤ substrate protein remaining % ≤ 80%) | A (0% ≤ substrate protein remaining % ≤ 80%) | 10 to 50
2 | O=C1CCC(N2Cc3cc(CN4CC=C(c5cccc(F)c5Cl)CC4)ccc3C2=O)C(=O)N1 (centres unmarked) [GT-04554, 3-(5-((4-(2-chloro-3-fluorophenyl)-3,6-dihydropyridin-1(2H)-yl)methyl)-1-oxoisoindolin-2-yl)piperidine-2,6-dione] | 500 to 1000 | < 1 | < 1 | < 1 | 1 to 5 | A (0% ≤ substrate protein remaining % ≤ 80%) | A (0% ≤ substrate protein remaining % ≤ 80%) | A (0% ≤ substrate protein remaining % ≤ 80%) | A (0% ≤ substrate protein remaining % ≤ 80%) | < 1 | A (0% ≤ substrate protein remaining % ≤ 80%) | A (0% ≤ substrate protein remaining % ≤ 80%) | 1 to 5
3 | O=C1CCC(N2Cc3cc(CN4CC=C(c5ccnc(F)c5F)CC4)ccc3C2=O)C(=O)N1 (centres unmarked) [GT-04555, 3-(5-((2',3'-difluoro-3,6-dihydro-[4,4'-bipyridin]-1(2H)-yl)methyl)-1-oxoisoindolin-2-yl)piperidine-2,6-dione] | 500 to 1000 | 10 to 50 | 10 to 50 | 5 to 10 | 100 to 500 | A (0% ≤ substrate protein remaining % ≤ 80%) | A (0% ≤ substrate protein remaining % ≤ 80%) | A (0% ≤ substrate protein remaining % ≤ 80%) | A (0% ≤ substrate protein remaining % ≤ 80%) | 5 to 10 | A (0% ≤ substrate protein remaining % ≤ 80%) | A (0% ≤ substrate protein remaining % ≤ 80%) | 500 to 1000
4 | O=C1CCC(N2Cc3cc(CN4CC=C(c5cncc(Cl)c5Cl)CC4)ccc3C2=O)C(=O)N1 (centres unmarked) [GT-04558, 3-(5-((4,5-dichloro-3',6'-dihydro-[3,4'-bipyridin]-1'(2'H)-yl)methyl)-1-oxoisoindolin-2-yl)piperidine-2,6-dione] | < 500 | 1 to 5 | 1 to 5 | < 1 | 5 to 10 | A (0% ≤ substrate protein remaining % ≤ 80%) | A (0% ≤ substrate protein remaining % ≤ 80%) | A (0% ≤ substrate protein remaining % ≤ 80%) | A (0% ≤ substrate protein remaining % ≤ 80%) | < 1 | A (0% ≤ substrate protein remaining % ≤ 80%) | A (0% ≤ substrate protein remaining % ≤ 80%) | 5 to 10
5 | O=C1CCC(N2Cc3cc(CN4CC=C(c5ccnc(Cl)c5Cl)CC4)ccc3C2=O)C(=O)N1 (centres unmarked) [GT-04559, 3-(5-((2',3'-dichloro-3,6-dihydro-[4,4'-bipyridin]-1(2H)-yl)methyl)-1-oxoisoindolin-2-yl)piperidine-2,6-dione] | < 500 | 1 to 5 | 1 to 5 | 1 to 5 | 10 to 50 | A (0% ≤ substrate protein remaining % ≤ 80%) | A (0% ≤ substrate protein remaining % ≤ 80%) | A (0% ≤ substrate protein remaining % ≤ 80%) | A (0% ≤ substrate protein remaining % ≤ 80%) | 1 to 5 | A (0% ≤ substrate protein remaining % ≤ 80%) | A (0% ≤ substrate protein remaining % ≤ 80%) | 10 to 50
